Reference: ChEMBL document CHEMBL3882245, “Novel aminopyridine derivatives having aurora a selective inhibitory action” (2008)

Assay: Cytotoxicity against human HeLaS3 cells assessed as cell growth inhibition at 0.3 nM after 3 days by WST-8 assay
Format: functional
Details: HeLa S3, 72 h, read-out: GI

CC(=O)O[C@@]12CO[C@@H]1C[C@H](O)[C@@]1(C)C(=O)[C@H](O)C3=C(C)[C@@H](OC(=O)[C@H](O)[C@@H](NC(=O)OC(C)(C)C)c4ccccc4)C[C@@](O)([C@@H](OC(=O)c4ccccc4)[C@H]21)C3(C)C [DOCETAXEL ANHYDROUS]
inhibition of growth at 0.0003 µM: 25.6 to 53.4%
